Consider one molecule from patent US11576914B2, “Drug for treating or preventing disorder caused by TGF-β signaling, and application thereof” (THE DOSHISHA, priority 2017, dated 2023).

Series [1] concerns cleaved caspase-3 and PARP. As to the kind of experiment: Western blot of caspase 3 and PARP in iFECD stimulated with TGF-β2. The conditions noted are these: 0.1 μM. It is filed as cell-based, human. The procedure: The medium was removed from the culture dish of cultured disease model cells, and the disease model cells were supplemented with 1×PBS (−) that was preheated to 37° C., followed by washing. This operation was repeated twice. The cells were supplemented with 1×PBS (−) again and incubated for 5 minutes at 37° C. (5% CO2). After the PBS (−) was removed, the cells were supplemented with 0.05% Trypsin-EDTA (nacalai tesque, 32778-34) and incubated for 5 minutes at 37° C. (5% CO2). The cells were then suspended in a medium, and collected by centrifugation at 1500 rpm for 3 minutes. Medium: DMEM (nacalai tesque, 08456-36)+10% FBS (Biowest, S1820-500)+1% P/S (nacalai tesque, 26252-94).
The Fuchs' endothelial corneal dystrophy patient-derived immortalized corneal endothelial cells were seeded in a 6-well plate at a rate of 1.5×10^5 cells per well and cultured at 37° C. (5% CO2) for 48 hours. DMEM+10% FBS+1% P/S was used as the medium. After 48 hours, the medium was removed, and SB203580 (Cayman, 13067), PH-797804 (Selleck Chemicals, S2726), VX-702 (Selleck Chemicals, 56005) and AKP-001 were added to DMEM+2% FBS+1% P/S so that all the final concentration was 0.1 μM, followed by culturing as 24-hour pretreatment.
After 24 hours, the medium was removed, and SB203580 (Cayman, 13067), PH-797804 (Selleck Chemicals, S2726), VX-702 (Selleck Chemicals, 56005) and AKP-001, together with 100 ng/ml recombinant human TGF-β2 (R & D systems, RND302-B2-002), were added to DMEM+2% FBS+1% P/S so that all the final concentration was 0.1 μM, followed by culturing for 24 hours. After 24 hours, the protein was subjected to Western blotting according to the following procedure to evaluate the effect on apoptosis.
The medium was collected on ice to collect free and dead cells as well. The solution obtained from washing the cells twice with 1×PBS (−) was also collected, followed by centrifugation of 800 g at 4° C. for 5 minutes. The supernatant was discarded to obtain precipitates. The washed cells were supplemented with a protein extraction buffer (RIPA; 50 mM Tris-HCl (pH 7.4), 150 mM NaCl, 1 mM EDTA, 0.1% SDS, 0.5% DOC, 1% NP-40) on ice to extract proteins. The precipitates from centrifuging the free and dead cells were also subsequently suspended together for extraction. The collected solution was pulverized three times for 30 seconds in cold water with a sonication device (BIORUPTOR, TOSHO DENKI) and centrifuged for 10 min at 4° C. at 15000 rpm to collect the supernatant of proteins.
Eight μg of the extracted protein was separated by SDS-PAGE and transferred onto a nitrocellulose membrane. A rabbit anti-Caspase 3 antibody (Cell Signaling, 9662), rabbit anti-PARP antibody (Cell Signaling, 9542), and mouse anti-GAPDH antibody (MBL, M171-3) were used as the primary antibodies. A peroxidase-labeled anti-rabbit antibody and anti-mouse antibody (GE Healthcare Biosciences, NA931V, NA934V) were used as the secondary antibodies. For the primary antibodies, the rabbit anti-PARP antibody was diluted 1000-fold, the rabbit anti-Caspase 3 antibody was diluted 1000-fold, and the mouse anti-GAPDH antibody was diluted 3000-fold. Further, the secondary antibody was diluted 5000-fold. Chemi Lumi ONE Ultra (Nacalai Tesque, 11644-40) was used for detection. The detected band strength was analyzed with a lumino image analyzer LAS-4000 mini (Fuji Film) and ImageQuant™ software (GE Healthcare).

For series [2], the system named is Fuchs corneal endothelial dystrophy (FECD) model mice (Col8a2 Q455K/Q455K). As to the kind of experiment: In vivo evaluation in FECD model mice. The conditions noted are these: ophthalmic solution 0.1 mM, 1 mM, 10 mM, 2 μl twice daily, 3 months. The procedure: In the present example, mice having a type 8 collagen mutation (Col8a2^Q455K/Q455K) are used as Fuchs corneal endothelial dystrophy (FECD) model mice.
Grading of the severity of FECD was performed on the basis of corneal endothelium images prior to instillation testing, and FECD model mice aged 20-24 weeks with similar symptoms were used. The prepared AKP-001 ophthalmic solution (0.1 mM, 1 mM, and 10 mM) is instilled into the left and right eyes, 2 μl at a time, twice daily in the morning and evening for 45 mice. Otsuka Normal Saline (Otsuka Pharmaceutical Co., Ltd.) is used as a control. The instillation period is set to be 3 months, during which the person in charge of the experimentation carries out the experimentation in a blinded state regarding the AKP-001 ophthalmic solution and the control ophthalmic solution.
Prior to the start of the instillation testing, corneal endothelial images are observed with a contact corneal endothelial specular (KSSP slit-scanning wide-field contact specular microscope (Konan medical Inc., Hyogo, Japan)) to conduct grading. After starting the instillation testing, the corneal endothelial images of the mice are observed once every 4 weeks using the contact corneal endothelial specular to evaluate the effectiveness of the AKP-001 ophthalmic solution.

Another series has as its system rabbits. As to the kind of experiment: Eye irritation testing (AKP-001 instillation). It counts as in vivo, rabbit. The procedure:
Rabbits that met the above criteria were used in the testing. The testing was carried out using a total of 4 rabbits. Fifty μl of 0.1 mM AKP-001 was instilled into the right eyes of the rabbits, and the eyes were maintained in a closed state for 30 seconds. The left eyes were instilled with a vehicle in the same manner. This operation was performed every 30 minutes and 10 times in total.
The anterior eye part was observed before and after the instillation using a slit lamp microscope (SL-D7, Topcon). The anterior eye part was stained with fluorescein sodium test paper (Showa Yakuhin Kako Co., Ltd.) and observed with a slit lamp microscope with regard to the presence or absence of corneal epithelial disorder. Further, the corneal thickness, corneal shape, and corneal volume thereof were analyzed using Pentacam® HR (OCULUS). The corneal endothelium was observed using a scanning slit-type, contact-type corneal endothelium specular microscope (Konan Medical, Inc.). Further, the central corneal thickness was measured using an ultrasonic pachymeter (SP-100, Tomey Corporation), and the intraocular pressure was measured using Tonovet® (ME Technica).
Corneal transparency was evaluated by the following Grading.
Opacity: degree of turbidity (the most turbid area is read.)

The mark [3] stands for this setting: prior to and after 10 instillations.

Several values for one entry are separate records, joined by “and”; a condition that tells them apart may be missing. Equal entries are not always repeated. Entries after “also recorded” stand apart in the source; their conditions may differ.

As for `O=C(Cc1c(F)cccc1Cl)Nc1onc(-c2ccc(F)cc2)c1-c1ccncn1` [AKP-001, 5-[(2-chloro-6-fluorophenyl)acetylamino]-3-(4-fluorophenyl)-4-(4-pyrimidinyl)isoxazole], in series [1] (100 ng/ml TGF-β2, 24 hours), the “cleaved caspase-3 and PARP expression” value was “hardly any”. In addition, the caspase activity result in series [1] (TGF-β2) is given as “inhibited”. Also, in series [2], the “decrease in corneal endothelial cell density compared to the control” value was “suppressed” and the “percentage of the area of guttae compared to the control” value is reported as “decreased”. In the series on rabbits (0.1 mM instilled 10 times), the “corneal thickness (Pentacam HR)” value is given as “No obvious changes”; the “epithelial disorder of the keratoconjunctiva, fluorescein staining” value was “no epithelial disorder of the stained keratoconjunctiva was observed”; the hyperemia entry is recorded as “no hyperemia was observed”; the “inflammation of the anterior eye part” value was “no inflammation or the like was observed; also recorded: no inflammation of the anterior eye part was observed”. Besides, the “shape of the cornea (Scheimpflug images)” value in the series on rabbits (0.1 mM instilled 10 times) is listed as “No obvious change”. For the same molecule, in the series on rabbits (10 instillations), the “corneal endothelium, specular microscope images” value is listed as “No obvious changes”. Also, the “cornea, slit lamp microscope” value in the series with rabbits (50 μl of 0.1 mM instilled 10 times every 30 minutes) is “transparent”. In addition, the corneal transparency score entry with rabbits (before and after 10 instillations, all the corneas) was “zero and 0”. Also, in the series with rabbits (setting [3]), the “central corneal thickness (ultrasonic pachymeter)” value is reported as “No significant changes”; the “corneal volume (10 mm diameter, Pentacam HR)” value is recorded as “No significant changes”; the “intraocular pressure (Tonovet)” value is “No significant changes”.
